Where two headings read alike, the source gives them in different places.
Key:
[1] = biological target: human recombinant AChE (E.C. 3.1.1.7) (Homo sapiens, UniProt P22303); assay: biochemical; details: for inhibition at 100 µM: read-out: % Inhibition hAChE ± SEM
[2] = biological target: human plasma BuChE (E.C. 3.1.1.8) (Homo sapiens, UniProt P06276); assay: biochemical; details: for inhibition at 100 µM: read-out: % Inhibition hBuChE ± SEM
[3] = mean ± SEM of three independent measurements, each in triplicate, read-out: IC50 hAChE ± SEM
[4] = tested at 100 µM compound concentration
[5] = mean ± SEM of three independent measurements, each in triplicate, read-out: IC50 hBuChE ± SEM

Chain of human recombinant AChE (E.C. 3.1.1.7) (P22303 32-614): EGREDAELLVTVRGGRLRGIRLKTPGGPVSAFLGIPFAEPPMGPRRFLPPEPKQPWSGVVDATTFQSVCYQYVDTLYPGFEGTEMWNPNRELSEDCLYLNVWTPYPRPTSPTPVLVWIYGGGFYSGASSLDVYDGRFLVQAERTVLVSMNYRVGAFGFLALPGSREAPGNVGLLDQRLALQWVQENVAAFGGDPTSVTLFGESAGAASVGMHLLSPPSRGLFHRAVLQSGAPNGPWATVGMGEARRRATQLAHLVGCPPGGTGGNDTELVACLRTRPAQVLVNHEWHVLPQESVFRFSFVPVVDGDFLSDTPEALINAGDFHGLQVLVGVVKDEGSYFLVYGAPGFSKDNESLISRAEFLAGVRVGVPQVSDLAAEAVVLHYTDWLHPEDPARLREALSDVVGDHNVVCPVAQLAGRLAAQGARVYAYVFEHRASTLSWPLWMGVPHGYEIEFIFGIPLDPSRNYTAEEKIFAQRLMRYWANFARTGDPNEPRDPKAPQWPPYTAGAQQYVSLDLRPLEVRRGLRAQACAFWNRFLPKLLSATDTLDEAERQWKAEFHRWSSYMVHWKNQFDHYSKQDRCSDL
Chain of human plasma BuChE (E.C. 3.1.1.8) (P06276 29-602): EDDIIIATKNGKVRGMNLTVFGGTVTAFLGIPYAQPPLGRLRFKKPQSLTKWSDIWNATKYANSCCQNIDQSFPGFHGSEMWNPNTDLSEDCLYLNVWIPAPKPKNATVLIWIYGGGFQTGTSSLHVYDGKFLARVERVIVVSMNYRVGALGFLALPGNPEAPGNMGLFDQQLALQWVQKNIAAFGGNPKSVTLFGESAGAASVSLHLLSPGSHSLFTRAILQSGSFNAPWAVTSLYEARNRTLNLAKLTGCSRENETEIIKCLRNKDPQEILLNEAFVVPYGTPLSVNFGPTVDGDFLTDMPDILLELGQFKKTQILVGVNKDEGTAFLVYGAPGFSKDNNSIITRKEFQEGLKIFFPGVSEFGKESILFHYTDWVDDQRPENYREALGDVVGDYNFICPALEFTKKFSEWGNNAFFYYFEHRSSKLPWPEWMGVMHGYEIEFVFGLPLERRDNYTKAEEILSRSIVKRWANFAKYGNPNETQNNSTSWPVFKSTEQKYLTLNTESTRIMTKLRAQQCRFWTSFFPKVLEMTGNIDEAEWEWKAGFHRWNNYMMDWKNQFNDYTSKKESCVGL

SMILES	IC50 [1] [µM]	inhibition at 100 µM [1] [%]	IC50 [2] [µM]	inhibition at 100 µM [2] [%]	IC50 [1, 3] [µM]	inhibition at 100 µM [1, 4] [%]	IC50 [2, 5] [µM]	inhibition at 100 µM [2, 4] [%]	IC50 ([1]; read-out: IC50 hAChE ± SEM) [µM]
COc1cc2c(cc1O)CN1CCC23C=CC(OC(C)=O)CC13 (centres unmarked) [3-O-acetyl-8-O-demethylmaritidine (12), 3-O-acetyl-8-O-demethylmaritidine]	> 100	12.3 ± 1.29	> 100	10.3 ± 2.06	–	–	–	–	–
COC(=O)c1cc(C(=O)O[C@H]2C[C@H]3CCN(C)[C@H]3[C@@H]3c4cc5c(cc4C(=O)O[C@H]32)OCO5)c(C)nc1C [cliniatine C (4), cliniatine C]	–	–	–	–	> 100	5.72 ± 0.53	> 100	9.43 ± 1.23	–
Cc1nc(C)c(C(=O)O[C@H]2C[C@H]3CCN(C)[C@H]3[C@@H]3c4cc5c(cc4C(=O)O[C@H]32)OCO5)cc1C(=O)O[C@H]1C[C@H]2CCN(C)[C@H]2[C@@H]2c3cc4c(cc3C(=O)O[C@H]21)OCO4 [clivimine (2), clivimine]	–	–	–	–	> 100	9.62 ± 1.75	> 100	15.2 ± 8.23	–
Cc1nc(C)c(C(=O)OC2CC3CCN(C)C3C3c4cc5c(cc4C(=O)OC23)OCO5)cc1C(=O)OC1CC2CCN(C)C2c2c1oc(=O)c1cc3c(cc21)OCO3 (centres unmarked) [clivimine B (3), clivimine B]	–	–	–	–	> 100	10.1 ± 5.37	> 100	7.69 ± 2.56	–
CN1CC[C@@H]2C[C@H](O)[C@@H]3OC(=O)c4cc5c(cc4[C@H]3[C@@H]21)OCO5 [clivonine (6), clivonine]	> 100	34.4 ± 1.68	> 100	28.2 ± 6.63	–	–	–	–	–
COc1ccc2c3c1O[C@H]1C[C@@H](O)C=C[C@@]31CCN(C)C2 [galanthamine, reference compound]	–	–	–	68.2 ± 1.24	–	–	–	–	–
CC(O)CC(=O)O[C@H]1C[C@H]2CCN(C)[C@H]2[C@@H]2c3cc4c(cc3C(=O)O[C@H]21)OCO4 (some centres unmarked) [nobilisitine B (14), nobilisitine B]	–	–	–	–	> 100	40 ± 1.13	> 100	12.6 ± 0.53	–
COc1cc2c(cc1O)C(=O)N1CCC3=C[C@H](O)[C@@H](OC(C)=O)[C@@H]2[C@@H]31 [sternbergine (17), sternbergine]	–	1.25 ± 0.23	–	23.5 ± 2.28	–	–	> 100	–	> 100
